SMILES strings stand for the structures.

Broadly, the melting point is the temperature, or range, at which the solid turns liquid.

Take `COC(=O)c1cscc1N=C=S`: the melting point was in the range of 93 to 95 °C. The same measure for `C#Cc1cccc(Nc2c(C#N)cnc3ccc(OCCOC)c(OCCOC)c23)c1`: 150 to 153 °C; for `CCC(C(=O)O)c1cccc(C(=O)c2cc3ccsc3s2)c1` (centres undefined): 143 °C; for `CSC(=S)N1CCN(CC2=C(C)C(=O)C(C)=C(C)C2=O)CC1`: 133 to 135 °C. The same measure for `COC(=O)C1Cc2c([nH]c3ccccc23)C(C)N1` (centres undefined): 152 to 154 °C; for `COC(=O)CCc1ccccc1-c1[nH]c2cccc3c2c1CCNC3=O`: 201 to 202 °C; for `O=C(c1cccc(OCCCN2C(=O)c3ccccc3C2=O)c1)N1CCCCC1`: 120 to 122 °C. For `Cc1c(OCC(F)(F)F)ccnc1CS(=O)c1nc2ccccc2n1S(=O)(=O)c1ccc(OCC(=O)Nc2ccccn2)cc1` (centres undefined) the value was 78 to 81 °C; for `CCOC(CNc1nc2ccccc2[nH]1)OCC`, 117 to 121 °C. In the case of `Cc1ccc(-c2ccc3c(c2)C=C(C(=O)Nc2ccc(Cc4ccccn4)cc2)CCO3)cc1`, the melting point lay within 189 to 190 °C. The same measure for `Nc1cccc(C(F)(F)C(F)(F)C(F)(F)C(F)(F)C(F)(F)C(F)(F)C(F)(F)C(F)(F)F)c1`: 35.5 to 36 °C.

With `CCOC(=O)C(C)(C)c1ccc(C(O)CCCN2CCC(C(O)(c3ccccc3)c3ccccc3)CC2)cc1` (centres undefined), the melting point lay in the range of 141 to 142 °C. For `Cc1cc(C=O)c(OCCCCCCCCc2ccccc2)c(C=O)c1` the value was 59 °C; for `O=CCOc1ccc(Oc2ccccc2)cc1`, 79 to 81 °C; for `Cc1cc(C)c(N2CCC2=O)cc1NS(=O)(=O)C(F)(F)F`, 137 to 139 °C. As to `O=C1c2ccccc2C(=O)N1CCCCN1CCN(c2csc3cc(F)ccc23)CC1`, the melting point is 94 to 95 °C.

The compound `O=C1CC2CC[C@@H](CN3C(=O)c4ccccc4C3=O)OC2O1` (some centres undefined) had a melting point of 186 to 189 °C. For `Cc1c(N(C)C)n2c(cc1=O)CCCC2` the value was > 240 °C; for `O=C(Cc1ccc(O)cc1)OCCC(c1ccccc1)(c1ccccc1)c1ccccc1`, 136 to 138 °C; for `COC(=O)c1oc(C(C)(C)C)cc1NC(=O)Nc1ccc(F)cc1`, 81 to 82 °C.

For the compound `CN(C(=S)NN)c1ccccc1`, the melting point is 121 to 122 °C.

In the case of `O=C1C=Cc2ccc3ncccc3c2C1=O`, the melting point was in the range of 215 to 216 °C. In the case of `Cc1c(C)c2c(c(C)c1NC(=O)CC(C)(C)C)C(N1CCCCC1)C(C)(C)O2` (centres undefined), the melting point lay in the range of 229 to 230 °C.

The compound `Cc1nc(C(=O)O)c(OCc2ccccc2)c(=O)n1C` registered a melting point of 180 to 181 °C.

Consider `CC(C)(C)NCC(O)C(Cl)(Cl)Cl` (centres undefined), for which the melting point was 48 to 50 °C. The same measure for `Cc1cc(F)c(Nc2ncnc3cc(O)ccc23)cc1O`: 274 to 278 °C; for `N#Cc1cc(Cc2ccccc2)ccc1N`: 68 to 69 °C; for `CN1CCN(Cc2nnc(S)n2Cc2cc(F)cc(F)c2)CC1`: 200 to 201 °C. For `CCOC(=O)C=C(C)C=CC=O` the value was 49 to 50 °C; for `CC1(C)Cc2ccccc2C1c1cncnc1S` (centres undefined), 184 to 186 °C. The same measure for `O=C(O)Cc1ccc(Br)cc1[N+](=O)[O-]`: 166 to 168 °C; for `COc1cc(OC)nc(OC(C(=O)N[C@@H](C)C(=O)O)C(C)C)n1` (some centres undefined): 157 to 160 °C; for `O=C(c1ccc(Oc2cccc3ccccc23)cc1)C(O)O`: 93 to 96 °C. `CC(=O)NC1Cc2ccc(OC(=O)CCl)cc2C1` (centres undefined) came in with a melting point of 106 to 108 °C. For `CO/N=C(\C)[C@H]1CC[C@H]2[C@@H]3CCC4=CC(=O)CC[C@]4(C)[C@H]3CC[C@]12C` the value was 180 to 182 °C.

Regarding `O=[N+]([O-])c1ccc(Oc2c(Cl)cc(S(=O)(=O)Nc3nc(-c4cccc([N+](=O)[O-])c4)cs3)cc2Cl)cc1`, the melting point was > 250 °C. The same measure for `COc1ccc(C(=O)Nc2c(Cl)cncc2Cl)c2[nH]cnc12`: 292 to 293 °C; for `COc1ccc(-c2[nH]cnc2-c2cc(OC)c(Br)c(OC)c2)cc1N`: 160 to 162 °C. The same measure for `Cc1ccc2c(c1)CC1(CCC(=O)CC1)C21OCCO1`: 124 to 127 °C; for `c1ccc(-c2ccc3nc(C4(c5ccc6nccnc6c5)N=c5ccccc5=N4)[nH]c3c2)cc1`: 235 °C; for `CCN(CC)C(=O)n1ccc(S(=O)(=O)c2cccc(F)c2F)n1`: 78 to 81 °C. `CCCCCC(c1ccccc1C(F)(F)F)C(C(N)=O)c1cc(C(=O)O)ccc1C(C)(C)C` (centres undefined) returned a melting point of 199 to 200 °C. For `C[C@H]1[C@H](NC(=O)OC(C)(C)C)C(=O)N1OCC(=O)OCc1ccc([N+](=O)[O-])cc1` the value was 71 to 75 °C; for `CC(C)n1c(C=CC=O)c(-c2ccc(F)cc2)c(-c2ccc(F)cc2)c1C=CC=O`, 207 °C. The same measure for `Cc1c(CC(=O)O)c2cc(OCc3ccc4ccccc4c3)ccc2n1Cc1ccc(Cl)cc1`: 168 to 170 °C; for `O=C(O)CCC(=O)N1CCc2cc(S(=O)(=O)N3CCN(c4cccc(Cl)c4)CC3)ccc21`: 228 to 230 °C. For `CCOC(=O)C1(N)C=CNN1c1cc(Cl)cc(Cl)c1` (centres undefined) the value was 157 to 158 °C. `Cc1nc(-c2c(C#N)nn(-c3c(Cl)cc(C(F)(F)F)cc3Cl)c2N)cs1` displayed a melting point of 226 to 228 °C. For `O=C(OC1CCCCC1)C1=C(O)c2ccccc2S(=O)(=O)N1` the value was 158 °C; for `Clc1ccc2c(c1)NC(c1ccncc1)c1cc(Cl)ccc1O2` (centres undefined), 202 to 205 °C. For the compound `ON=Cc1csc2ccccc12`, the melting point is 87 to 89 °C. For `CCCCN1CCC(CCC(=O)c2cc(Cl)c(N)nc2OC)CC1` the value was 86 to 87 °C; for `O=C(c1cccs1)C(Cc1ccccc1F)n1cncn1` (centres undefined), 121 to 122 °C. For `CCN(C(=O)c1ccccc1C(=O)c1ccc(Cl)cc1)[C@@H]1CCCC[C@@H]1NS(=O)(=O)c1ccc(C)cc1` (relative stereo) the value was 178 to 180 °C; for `Cc1csc2c(Sc3nnc(N)s3)ncnc12`, 221 to 223 °C; for `CC(=O)OCC(=O)NNC(=O)c1ccc2occ(-c3cccc(OC(F)(F)F)c3)c2c1`, 161 to 162 °C.

Take `CCC1(O)CC(=O)OCc2c1cc1n(c2=O)Cc2c-1nc1ccc(Cl)cc1c2-c1ccccc1F` (centres undefined): the melting point was > 250 °C. The compound `O=C(N[C@@H](Cc1ccccc1)C(=O)O)C(CS)C(F)(F)F` (some centres undefined) had a melting point of 133 to 134 °C. Consider `O=C(CP(=O)(O)O)NCc1ccccc1`, for which the melting point lay in the range of 130 to 134 °C. The same measure for `COC(=O)C(=NO)c1nc2ccc(C)cc2oc1=O`: 189 to 190 °C; for `Cn1ncc(/C=C/C(=O)Nc2ccc(CN)cc2)c1-c1ccc(F)cc1`: 201 to 202 °C. The same measure for `N#Cc1cn(-c2ccc(F)cc2F)c(=O)n(SC(Cl)(Cl)Cl)c1=O`: 196 to 198 °C; for `CC(C)C[C@H](NC(=O)COc1ccc(Cl)cc1)C(=O)N[C@@H](C(C)C)[C@@H](O)c1c(-c2ccccc2)c1=O`: 88 to 90 °C; for `Cc1nccn1-c1nc(-c2ccc(C(F)(F)F)cc2)c(CCCO)o1`: 127 to 129 °C. For `Cc1c(NC(=O)CC(C)(C)C)cc2c(c1C)OC(C)(C)C2c1ccccc1` (centres undefined) the value was 182 to 183 °C; for `CCOc1ccc(-c2nc(CCC(=O)OC)cs2)cc1OCC`, 58.1 to 58.3 °C; for `CN1C(=O)N(CCC(NS(=O)(=O)c2ccc(-c3ccc(Cl)cc3)cc2)C(=O)O)C(=O)C1(C)C` (centres undefined), 43 °C.

Compound `O=C(CCc1ccc2c(c1)CCCC2)N1C(=O)OC[C@@H]1Cc1ccccc1` registered a melting point of 92 to 93 °C. The same measure for `CN(C)C(=O)Nc1nsnc1-c1c(Cl)cccc1Cl`: 100 to 103 °C; for `O=Cc1cn(-c2ccccc2)nc1-c1ccc([N+](=O)[O-])o1`: 208 to 209 °C; for `COC(Cn1cncn1)(c1ccc(F)cc1F)C(F)(F)SCCO` (centres undefined): 76 to 79 °C. On to `COc1ccc(NC(=O)Nc2ccc(Cl)c(Cl)c2)cc1NS(=O)(=O)c1cccs1`, for which the melting point was 205 to 208 °C.

On to `COc1nccc2c1C(c1ccccc1C(F)(F)F)c1c(ccnc1OC(C)C)N2` (centres undefined), for which the melting point is 183 to 185 °C. For `COc1ccc2c3c(c(=O)oc2c1)CN(CCN1CC2CCCC(C2)C1)CC3` the value was 102 to 103 °C; for `COC(=O)C(=O)Nc1ccc(-c2ccccc2S(=O)(=O)NC(C)(C)C)cc1`, 132 °C. `COc1ccc(C(C)=C2SCCCS2)cc1C(=O)O` registered a melting point of 130 to 132 °C. For `Cc1[nH]cnc1CCNC(=NCCCOc1cccc(CN2CCCCC2)c1)NC(=O)c1ccccc1` the value was 118 to 120 °C. The same measure for `CCn1nc(C)c2c1C(=O)Nc1ccccc1N2C(=O)CCl`: 208 to 210 °C; for `Cn1ncc(C(=O)O)c1C(=O)Nc1ccn2nc(-c3cccnc3)nc2c1`: > 250 °C; for `CC(C)(Cc1c[nH]c2ccccc12)NC[C@H](O)CO`: 77 to 77.8 °C. For `O=C(c1cc2cc(OCCNC[C@H](O)COc3ccccc3Cl)ccc2o1)N1CCCC1` the value was 89 to 90 °C; for `COC(OC)c1cc(-n2c(=O)cc(C(F)(F)F)n(C)c2=O)ccc1Cl`, 92 to 94 °C; for `CCn1c(SC)cc2ccccc2c1=O`, 80 to 82 °C. In turn, `Cc1cc2ncc(-c3cccc(C(F)(F)F)c3)c(N)n2n1` yielded a melting point of 176 °C. The same measure for `Clc1ccc2scc(-c3ccncc3)c2c1`: 90 to 91 °C; for `COc1cccc(COCCCn2ccnc2)c1NC(=O)CC1c2ccccc2Oc2ccccc21`: 155 to 156 °C. For `Cc1ccc(-c2cc3ccccc3[nH]2)cc1` the value was 213 to 215 °C; for `C/C(=C\c1ccc(OC(C)C)cc1Oc1ncc(C(F)(F)F)cc1Cl)C(=O)NS(=O)(=O)NCc1cnc(C)cn1`, 126 to 128 °C; for `N#CCc1cc(C(=O)c2ccc(Cl)cc2)cn1Cc1ccccc1`, 102 to 104 °C.
